The subject of the experiment is BDF1 mice, P388 leukemia ip, median survival T/C. The experiment is described as follows: NCI In Vivo Anticancer Drug Screen. Data for tumor model P388 Leukemia (intraperitoneal) in B6D2F1 (BDF1) mice. The following applies: endpoint: median survival time, higher = longer survival. The gist of the method: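 Each value expresses how treatment altered survival: treated-mouse outcome over vehicle-mouse outcome, both groups bearing the transplanted tumour.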

[1] abbreviates: dose: 50.0 mg/kg/injection, schedule: Q01DX009 (ip), vehicle: saline with Tween-80.

Here are results for eight compounds from PubChem BioAssay AID328 (DTP/NCI, 2004).

Inconclusive results and toxic doses are left out. Non-standard residues stand in square brackets, D forms with d. Residues, ends and D or L forms follow the SMILES beside them. ξ: configuration not given here. *: point of attachment. Nphe = O=C(O)CNCc1ccccc1; ξF = NC(Cc1ccccc1)C(=O)O; Ms = CS(=O)(=O)*

Regarding `CS(=O)(=O)N(CC(=O)NC(Cc1ccccc1)C(=O)O)Cc1ccccc1` (stereo unspecified) (Ms-[Nphe]-[ξF]-OH), the T/C is, setting by setting: (dose: 12.5 mg/kg/injection, schedule: Q04DX003 (ip), vehicle: sodium bicarbonate) 100 % of control; (dose: 25.0 mg/kg/injection, schedule: Q01DX009 (ip), vehicle: other) 114 % of control; (dose: 25.0 mg/kg/injection, schedule: Q04DX003 (ip), vehicle: other) 94 % of control; (dose: 25.0 mg/kg/injection, schedule: Q04DX003 (ip), vehicle: sodium bicarbonate) 106 % of control; (dose: 50.0 mg/kg/injection, schedule: Q01DX009 (ip), vehicle: other) 100 % of control; (dose: 50.0 mg/kg/injection, schedule: Q04DX003 (ip), vehicle: other) 103 % of control. Besides, the T/C by setting is: (dose: 50.0 mg/kg/injection, schedule: Q04DX003 (ip), vehicle: sodium bicarbonate) 104 % of control; (dose: 100.0 mg/kg/injection, schedule: Q01DX009 (ip), vehicle: other) 114 % of control; (dose: 100.0 mg/kg/injection, schedule: Q04DX003 (ip), vehicle: other) 106 % of control; (dose: 100.0 mg/kg/injection, schedule: Q04DX003 (ip), vehicle: sodium bicarbonate) 96 % of control; (dose: 200.0 mg/kg/injection, schedule: Q04DX003 (ip), vehicle: other) 104 % of control; (dose: 200.0 mg/kg/injection, schedule: Q04DX003 (ip), vehicle: sodium bicarbonate) 98 % of control. Moreover, the T/C is, setting by setting: (dose: 400.0 mg/kg/injection, schedule: Q04DX003 (ip), vehicle: other) 103 % of control; (dose: 400.0 mg/kg/injection, schedule: Q04DX003 (ip), vehicle: sodium bicarbonate) 90 % of control.
Take `Nc1ccccc1SC1CC(=O)N(c2cccc3ccccc23)C1=O` (stereo unspecified): the T/C (dose: 100.0 mg/kg/injection, schedule: Q01DX009 (ip), vehicle: Klucel (hydroxypropylcellulose) (HPC)) is 118 % of control; the T/C (dose: 100.0 mg/kg/injection, schedule: Q04DX003 (ip), vehicle: Klucel (hydroxypropylcellulose) (HPC)) was 104 % of control; the T/C (dose: 200.0 mg/kg/injection, schedule: Q01DX009 (ip), vehicle: Klucel (hydroxypropylcellulose) (HPC)) is 118 % of control; the T/C (dose: 200.0 mg/kg/injection, schedule: Q04DX003 (ip), vehicle: Klucel (hydroxypropylcellulose) (HPC)) is 100 % of control; the T/C (dose: 400.0 mg/kg/injection, schedule: Q01DX009 (ip), vehicle: Klucel (hydroxypropylcellulose) (HPC)) is 100 % of control; the T/C (dose: 400.0 mg/kg/injection, schedule: Q04DX003 (ip), vehicle: Klucel (hydroxypropylcellulose) (HPC)) was 90 % of control.
In the case of `CC(=O)Oc1cc2c(cc1OC(C)=O)C(Br)CCCC2=O` (stereo unspecified), the T/C by setting is: (dose: 75.0 mg/kg/injection, schedule: Q04DX003 (ip), vehicle: other) 95 % of control; (dose: 150.0 mg/kg/injection, schedule: Q04DX003 (ip), vehicle: other) 95 % of control; (dose: 300.0 mg/kg/injection, schedule: Q04DX003 (ip), vehicle: other) 109 % of control.
As to `CCN(C)c1nc(N(C)CC)c2nc(N(C)CC)nc(N(C)CC)c2n1`, the T/C is 108 % of control (dose: 3.13 mg/kg/injection, schedule: Q01DX009 (ip), vehicle: Klucel (hydroxypropylcellulose) (HPC)); 99 % of control (dose: 6.25 mg/kg/injection, schedule: Q01DX009 (ip), vehicle: Klucel (hydroxypropylcellulose) (HPC)); 99 % of control (dose: 12.5 mg/kg/injection, schedule: Q01DX009 (ip), vehicle: Klucel (hydroxypropylcellulose) (HPC)); 106 % of control (dose: 25.0 mg/kg/injection, schedule: Q01DX009 (ip), vehicle: Klucel (hydroxypropylcellulose) (HPC)).
`CC(=O)c1c(C)oc(C)c1C(C)=O`: the T/C was 103 % of control (dose: 100.0 mg/kg/injection, schedule: Q04DX003 (ip), vehicle: saline with Tween-80); 111 % of control (dose: 200.0 mg/kg/injection, schedule: Q04DX003 (ip), vehicle: saline with Tween-80); 96 % of control (dose: 400.0 mg/kg/injection, schedule: Q04DX003 (ip), vehicle: saline with Tween-80).
`Nc1nc(Cl)c(C=O)c(Cl)n1`: under setting [1], the T/C was 241 % of control.
Consider `CCOC(=O)c1cccc2cccc(C(=O)OCC)c12`, for which the T/C (dose: 25.0 mg/kg/injection, schedule: Q01DX009 (ip), vehicle: saline with Tween-80) is 106 % of control; the T/C under setting [1] is 92 % of control; the T/C (dose: 100.0 mg/kg/injection, schedule: Q01DX009 (ip), vehicle: saline with Tween-80) was 114 % of control; the T/C (dose: 200.0 mg/kg/injection, schedule: Q01DX009 (ip), vehicle: saline with Tween-80) was 100 % of control.
As for `CC(=O)N(NC(=O)c1ccccn1)C(C)=O`, the T/C reads like this: (dose: 50.0 mg/kg/injection, schedule: Q01DX009 (ip), vehicle: saline sonified) 86 % of control; (dose: 50.0 mg/kg/injection, schedule: Q04DX003 (ip), vehicle: saline sonified) 104 % of control; (dose: 100.0 mg/kg/injection, schedule: Q01DX009 (ip), vehicle: saline sonified) 95 % of control; (dose: 100.0 mg/kg/injection, schedule: Q04DX003 (ip), vehicle: saline sonified) 90 % of control; (dose: 200.0 mg/kg/injection, schedule: Q01DX009 (ip), vehicle: saline sonified) 91 % of control; (dose: 200.0 mg/kg/injection, schedule: Q04DX003 (ip), vehicle: saline sonified) 104 % of control.
